One experiment has as its system Artemia salina. Put plainly: Inhibition of Artemia salina evaluated using Arternia salina Immobilization assay. Format: functional.
The subject of another experiment is Caenorhabditis elegans. Put plainly: Inhibition of Caenorhabditis elegans binding evaluated using Caenorhabditis elegans motility assay. In kind it is functional, organism-based.
The subject of experiment [1] is Gerbillinae. Put plainly: In vivo Effective dose against Trichostrongylus colubriformis in Trichostrongylus colubriformis assay using gerbils. In kind it is functional.
For experiment [2], the system named is Gerbillinae. In words: In vivo Effective dose against Trichostrongylus colubriformis in T. colubriformis assay using Gerbils. In kind it is functional.
Setting [3] is: Caenorhabditis elegans, read-out: IC50.

The results in this text go back to ChEMBL document CHEMBL1151081, “Synthesis of avermectin B1-4,4a-oxide: a precursor of potent anthelmintic agents” (Bioorg Med Chem Lett, 1992).

≈ marks a conversion by molar mass, not a printed value.

In general, IC50 refers to the concentration that inhibits the measured activity by half. Consider `CCC(C)[C@H]1O[C@]2(C=C[C@@H]1C)C[C@@H]1C[C@@H](C/C=C(\C)[C@@H](O[C@H]3C[C@H](OC)[C@@H](O[C@H]4C[C@H](OC)[C@@](O)(CSc5ccncc5)[C@H](C)O4)[C@H](C)O3)[C@@H](C)/C=C/C=C3\CO[C@@H]4[C@H](O)C(C)=C[C@@H](C(=O)O1)[C@]34O)O2` (some centres not stated), for which, in the experiment on Artemia salina, the IC100 was 6930 ng/mL. Moreover, the IC50 with Caenorhabditis elegans (setting [3]) turned out to be 0.11 ng/mL (≈ 0.11 nM). In the experiment with Gerbillinae [1], this molecule yielded an ED85 of 0.125 mg/kg.

`CCCNC[C@@]1(O)[C@H](C)O[C@@H](O[C@H]2[C@H](C)O[C@@H](O[C@@H]3/C(C)=C/C[C@@H]4C[C@@H](C[C@]5(C=C[C@H](C)[C@@H](C(C)CC)O5)O4)OC(=O)[C@@H]4C=C(C)[C@@H](O)[C@H]5OC/C(=C\C=C\[C@@H]3C)[C@]54O)C[C@@H]2OC)C[C@@H]1OC` (some centres not stated) gave an IC100 with Artemia salina of 6930 ng/mL. For the same molecule, the IC50 in the experiment with Caenorhabditis elegans (setting [3]) amounted to 0.17 ng/mL (≈ 0.18 nM). Also, in the experiment on Gerbillinae [1], the ED85 came to 0.125 mg/kg.

In the experiment on Artemia salina, `CCC(C)[C@H]1O[C@]2(C=C[C@@H]1C)C[C@@H]1C[C@@H](C/C=C(\C)[C@@H](O[C@H]3C[C@H](OC)[C@@H](O[C@H]4C[C@H](OC)[C@@](O)(CSc5ncc[nH]5)[C@H](C)O4)[C@H](C)O3)[C@@H](C)/C=C/C=C3\CO[C@@H]4[C@H](O)C(C)=C[C@@H](C(=O)O1)[C@]34O)O2` (some centres not stated) came in with an IC100 of 430 ng/mL. In the experiment on Caenorhabditis elegans (setting [3]), the IC50 amounted to 0.13 ng/mL (≈ 0.132 nM). In the experiment with Gerbillinae [1], this molecule showed an ED85 of 0.031 mg/kg.

On to IVERMECTIN [listing 1 of 2 here], for which, at Caenorhabditis elegans, the IC50 stood at 0.2 ng/mL.

For `CCOC(CNC[C@@]1(O)[C@H](C)O[C@@H](O[C@H]2[C@H](C)O[C@@H](O[C@@H]3/C(C)=C/C[C@@H]4C[C@@H](C[C@]5(C=C[C@H](C)[C@@H](C(C)CC)O5)O4)OC(=O)[C@@H]4C=C(C)[C@@H](O)[C@H]5OC/C(=C\C=C\[C@@H]3C)[C@]54O)C[C@@H]2OC)C[C@@H]1OC)OCC` (some centres not stated), the IC100 in the experiment with Artemia salina came out at 13900 ng/mL. Besides, the IC50 in the experiment on Caenorhabditis elegans (setting [3]) came to 0.15 ng/mL (≈ 0.147 nM). In the experiment with Gerbillinae [1], the ED85 is 0.125 mg/kg.

In the case of `CCC(C)[C@H]1O[C@]2(C=C[C@@H]1C)C[C@@H]1C[C@@H](C/C=C(\C)[C@@H](O[C@H]3C[C@H](OC)[C@@H](O[C@H]4C[C@H](OC)[C@@](O)(CSC(C)=O)[C@H](C)O4)[C@H](C)O3)[C@@H](C)/C=C/C=C3\CO[C@@H]4[C@H](O)C(C)=C[C@@H](C(=O)O1)[C@]34O)O2` (some centres not stated), in the experiment on Artemia salina, the IC100 was found to be 1730 ng/mL. Moreover, in the experiment with Caenorhabditis elegans (setting [3]), the IC50 came to 0.18 ng/mL (≈ 0.187 nM). In addition, in the experiment on Gerbillinae [1], the ED85 was 0.125 mg/kg.

For the molecule `CCC(C)[C@H]1O[C@]2(C=C[C@@H]1C)C[C@@H]1C[C@@H](C/C=C(\C)[C@@H](O[C@H]3C[C@H](OC)[C@@H](O[C@H]4C[C@H](OC)C(O)(CC#N)C[C@H](C)O4)[C@H](C)O3)[C@@H](C)/C=C/C=C3\CO[C@@H]4[C@H](O)C(C)=C[C@@H](C(=O)O1)[C@]34O)O2` (some centres not stated), the IC100 in the experiment with Artemia salina came to 870 ng/mL. The IC50 in the experiment on Caenorhabditis elegans (setting [3]) was 0.7 ng/mL (≈ 0.756 nM). The ED85 in the experiment on Gerbillinae [2] is 0.031 mg/kg.

In turn, `CCCNCC1(O)C[C@H](C)O[C@@H](O[C@H]2[C@H](C)O[C@@H](O[C@@H]3/C(C)=C/C[C@@H]4C[C@@H](C[C@]5(C=C[C@H](C)[C@@H](C(C)CC)O5)O4)OC(=O)[C@@H]4C=C(C)[C@@H](O)[C@H]5OC/C(=C\C=C\[C@@H]3C)[C@]54O)C[C@@H]2OC)C[C@@H]1OC` (some centres not stated) registered an IC100 with Artemia salina of 27800 ng/mL. Besides, the IC50 in the experiment with Caenorhabditis elegans (setting [3]) worked out at 1.39 ng/mL (≈ 1.45 nM). For the same molecule, the ED85 with Gerbillinae [2] turned out to be 0.125 mg/kg.

Consider `CCC(C)[C@H]1O[C@]2(C=C[C@@H]1C)C[C@@H]1C[C@@H](C/C=C(\C)[C@@H](O[C@H]3C[C@H](OC)[C@@H](O[C@H]4C[C@H](OC)[C@@](O)(CNCc5ccco5)[C@H](C)O4)[C@H](C)O3)[C@@H](C)/C=C/C=C3\CO[C@@H]4[C@H](O)C(C)=C[C@@H](C(=O)O1)[C@]34O)O2` (some centres not stated), for which, in the experiment on Artemia salina, the IC100 turned out to be 10415 ng/mL. The IC50 with Caenorhabditis elegans (setting [3]) was 0.1 ng/mL (≈ 0.102 nM). The same molecule displayed an ED85 in the experiment on Gerbillinae [1] of 0.063 mg/kg.

For `CCC(C)[C@H]1O[C@]2(C=C[C@@H]1C)C[C@@H]1C[C@@H](C/C=C(\C)[C@@H](O[C@H]3C[C@H](OC)[C@@H](O[C@H]4C[C@H](OC)[C@@](O)(CNCC5CCCCC5)[C@H](C)O4)[C@H](C)O3)[C@@H](C)/C=C/C=C3\CO[C@@H]4[C@H](O)C(C)=C[C@@H](C(=O)O1)[C@]34O)O2` (some centres not stated), in the experiment on Artemia salina, the IC100 was 55500 ng/mL. For the same molecule, in the experiment with Caenorhabditis elegans (setting [3]), the IC50 was 0.13 ng/mL (≈ 0.13 nM). The ED85 in the experiment on Gerbillinae [1] was determined as 0.25 mg/kg.

In turn, `CCC(C)[C@H]1O[C@]2(C=C[C@@H]1C)C[C@@H]1C[C@@H](C/C=C(\C)[C@@H](O[C@H]3C[C@H](OC)[C@@H](O[C@H]4C[C@H](OC)C(O)(CSC(C)=O)C[C@H](C)O4)[C@H](C)O3)[C@@H](C)/C=C/C=C3\CO[C@@H]4[C@H](O)C(C)=C[C@@H](C(=O)O1)[C@]34O)O2` (some centres not stated) gave an IC100 in the experiment on Artemia salina of 1300 ng/mL. For the same molecule, in the experiment with Caenorhabditis elegans (setting [3]), the IC50 is 1.11 ng/mL (≈ 1.14 nM). Moreover, in the experiment with Gerbillinae [2], the ED85 is 0.031 mg/kg.

The molecule IVERMECTIN [listing 2 of 2 here] registered an IC100 in the experiment with Artemia salina of 430 ng/mL. In the experiment with Gerbillinae [1], this molecule yielded an ED85 of 0.063 mg/kg.

Turning to `CCC(C)[C@H]1O[C@]2(C=C[C@@H]1C)C[C@@H]1C[C@@H](C/C=C(\C)[C@@H](O[C@H]3C[C@H](OC)[C@@H](O[C@H]4C[C@H](OC)[C@@](O)(CSC5CCCCC5)[C@H](C)O4)[C@H](C)O3)[C@@H](C)/C=C/C=C3\CO[C@@H]4[C@H](O)C(C)=C[C@@H](C(=O)O1)[C@]34O)O2` (some centres not stated), the IC100 in the experiment with Artemia salina was 6930 ng/mL. In the experiment with Caenorhabditis elegans (setting [3]), the half-maximal inhibitory concentration (IC50) amounted to 1.28 ng/mL (≈ 1.28 nM). For the same molecule, the ED85 with Gerbillinae [1] was determined as 0.25 mg/kg.

On to `CCC(C)[C@H]1O[C@]2(C=C[C@@H]1C)C[C@@H]1C[C@@H](C/C=C(\C)[C@@H](O[C@H]3C[C@H](OC)[C@@H](O[C@H]4C[C@H](OC)C(O)(CSCC(=O)OC)C[C@H](C)O4)[C@H](C)O3)[C@@H](C)/C=C/C=C3\CO[C@@H]4[C@H](O)C(C)=C[C@@H](C(=O)O1)[C@]34O)O2` (some centres not stated), for which, in the experiment with Artemia salina, the IC100 is 1300 ng/mL. In the experiment with Caenorhabditis elegans (setting [3]), the IC50 worked out at 0.88 ng/mL (≈ 0.875 nM). This molecule also registered an ED85 in the experiment with Gerbillinae [2] of 0.063 mg/kg.

In the experiment on Artemia salina, `CCC(C)[C@H]1O[C@]2(C=C[C@@H]1C)C[C@@H]1C[C@@H](C/C=C(\C)[C@@H](O[C@H]3C[C@H](OC)[C@@H](O[C@H]4C[C@H](OC)[C@@](O)(CSCC(=O)OC)[C@H](C)O4)[C@H](C)O3)[C@@H](C)/C=C/C=C3\CO[C@@H]4[C@H](O)C(C)=C[C@@H](C(=O)O1)[C@]34O)O2` (some centres not stated) had an IC100 of 870 ng/mL. Also, the IC50 in the experiment on Caenorhabditis elegans (setting [3]) is 1.28 ng/mL (≈ 1.29 nM). This molecule showed an ED85 with Gerbillinae [1] of 0.25 mg/kg.
